In PMC11099041, “Tissue distribution and retention drives efficacy of rapidly clearing VHL-based PROTACs” (Communications Medicine, 2024):

Legend:
[1] = rat, in vivo
Text: Male Sprague Dawley rats, intact or bile-cannulated, were from Envigo RMS, Inc. The animals were acclimated to study conditions for five days prior to dose administration. During acclimation, animals were individually housed in suspended, stainless steel, wire-mesh cages. During the test period, animals were placed in Nalgene cages designed for the collection of urine, feces, and bile. Certified Rodent Diet #2016C or 2016CM (Envigo RMS, Inc.) were provided ad libitum. Water was provided fresh daily. Environmental controls for the animal room were set to maintain a temperature of 20-26 °C, a relative humidity of 50 ± 20%, and a 12-hour light/12-hour dark cycle. […] Three BDC rats were used for collection of bile, urine, and feces, five intact rats for collection of plasma, blood, urine, feces, and tissues, and eight intact rats for collection of blood and carcasses for QWBA. […] The vehicle for the IV dose was 20% 2-hydroxypropyl-β-cyclodextrin (HP-β-CD) in 50 mM sodium acetate buffer, pH 4.0. […] The supernatant was removed, and the formulation appeared to be a very slight yellow solution. Stability was checked by HPLC analysis of pre- and post-dose aliquots. Animals were not fasted. The actual amount administered was determined by weighing the dose syringe before and after dose administration. The IV dose of 4 mg/kg was administered via a tail vein. For QWBA rats, one animal/time point was prepared for QWBA at approximately 0.25, 1, 4, 8, 24, 48, 168, and 336 hours. […] Blood was maintained on wet ice until being aliquoted for radioanalysis and centrifuged to obtain plasma. […] Each carcass was drained, blotted dry, placed into an appropriately labeled bag, and placed on dry ice or stored at ~-70 °C for at least 2 hours. The frozen carcasses were embedded in chilled carboxymethylcellulose and frozen into blocks. Embedded carcasses were stored at ~-20 °C in preparation for autoradiographic analysis. The samples were stored at -70 °C before analysis. […] Prior to section collection, standards fortified with ^14C radioactivity were placed into the frozen block containing the carcass and were used for monitoring the uniformity of section thickness. Appropriate sections were collected on adhesive tape at 40 μm thickness, in a Leica CM 3600 cryomicrotome in accordance with Covance standard operating procedures. Sections were collected at five levels of interest in the sagittal plane. All major tissues, organs, and biological fluids were represented. Collected sections were dried at ~-20 °C. A section set from each animal was prepared by mounting a representative section from each level of interest. Mounted sections were tightly wrapped with Mylar film and exposed on phosphor-imaging screens along with fortified blood standards for subsequent calibration of the image analysis software. Screens were exposed for 4 days. Exposed screens were scanned using a Typhoon scanner. The autoradiographic standard image data were sampled using InterFocus Imaging Ltd. MCIDTM Analysis software to create a calibrated standard curve. Specified tissues, organs, and fluids were analyzed. […] Tissue concentration data are presented in tabular format. Autoradiographs were annotated. The mean time concentration profile was generated for each group, and an overall AUC was then calculated with these sparse samples of rats and mice. […]

CYP3A4/5 = test: Reversible P450 inhibition in HLM; format: biochemical; settings: human, human liver microsomes
Protocol: The reversible P450 inhibition assay was conducted in triplicate on a BioCel 1200 System, V11 (Agilent, CA), as previously described by Kosaka, et al.[28] […] […] P450 activity was expressed as the peak area ratio of a P450-specific metabolite formed relative to its internal standard, and inhibition percentage was calculated from P450 activity of samples relative to the solvent control. Inhibition data were processed using Prism (GraphPad Software, San Diego, CA) to calculate IC50 values for each P450 enzyme.

Structure (SMILES) | Half-life (t1/2) in tissues [1] [h] | Radioactivity t1/2, brain cerebellum [1] [h] | Radioactivity t1/2, small intestine [1] [h] | Cmax, adrenal glands ([1]; iv, 4 mg/kg) [µg/g] | Cmax, kidneys ([1]; iv, 4 mg/kg) [µg/g] | Cmax, liver ([1]; iv, 4 mg/kg) [µg/g] | Cmax, lungs ([1]; iv, 4 mg/kg) [µg/g] | Cmax, pancreas ([1]; iv, 4 mg/kg) [µg/g] | Cmax, salivary glands ([1]; iv, 4 mg/kg) [µg/g] | Cmax, spleen ([1]; iv, 4 mg/kg) [µg/g] | Cmax, thyroid gland ([1]; iv, 4 mg/kg) [µg/g] | t½ ([1]; iv, 4 mg/kg) [h] | IC50 (CYP3A4/5; pH 7.4, probe midazolam, substrate Midazolam) [nM] | IC50 (CYP3A4/5; pH 7.4, probe testosterone, substrate Testosterone) [nM]
Cc1ncsc1-c1ccc(C(C)NC(=O)C2CC(O)CN2C(=O)C(c2cc(N3CCC(CN4CCC(OC5CC(Oc6cc(N7C8CCC7CN(c7cc(-[14c]9[14cH][14cH][14cH][14cH][14c]9O)nnc7N)C8)ccn6)C5)CC4)CC3)no2)C(C)C)cc1 (centres unmarked) [14C-A947] | 87 to 100 | 11 | 167 | 17 | 22 | 32 | 12 | 9 | 12 | 21 | 18 | 111 | – | –
Cc1ncsc1-c1ccc(C(C)NC(=O)C2CC(O)CN2C(=O)C(c2cc(N3CCC(CN4CCC(OC5CC(Oc6cc(N7C8CCC7CN(c7cc(-c9ccccc9O)nnc7N)C8)ccn6)C5)CC4)CC3)no2)C(C)C)cc1 (centres unmarked) [A947] | – | – | – | – | – | – | – | – | – | – | – | – | 540 | > 10000
